Measured values from US6737441B2, “Treatment of helicobacter with isothiocyanates” (priority 2000, dated 2004).
Values after ≈ are worked out from the molar mass of the structure shown. Where two headings read alike, the source gives them in different places.

How the values were obtained:
[1] = system: amoxicillin/clarithromycin/metronidazole - susceptible strains of Helicobacter pylori; assay: Bacteriostatic activity (MIC) against susceptible strains; format: cell-based
[2] = system: clarithromycin and/or metronidazole - intermediate or resistant strains of Helicobacter pylori; assay: Bacteriostatic activity (MIC) against intermediate or resistant strains; format: cell-based
[3] = in cell culture; cited from earlier work
[4] = Helicobacter pylori, H. pylori strain no 1, read-out: MIC
[5] = Helicobacter pylori, H. pylori strain no 2, read-out: MIC
[6] = Helicobacter pylori, H. pylori strain no 3, read-out: MIC
[7] = Helicobacter pylori, H. pylori strain no 4, read-out: MIC
[8] = Helicobacter pylori, H. pylori strain no 5, read-out: MIC
[9] = Helicobacter pylori, H. pylori strain no 6, read-out: MIC
[10] = Helicobacter pylori, H. pylori strain no 7, read-out: MIC
[11] = Helicobacter pylori, H. pylori strain no 8, read-out: MIC
[12] = Helicobacter pylori, H. pylori strain no 10, read-out: MIC
[13] = Helicobacter pylori, H. pylori strain no 11, read-out: MIC
[14] = Helicobacter pylori, H. pylori strain no 12, read-out: MIC
[15] = Helicobacter pylori, H. pylori strain no 13, read-out: MIC
[16] = Helicobacter pylori, H. pylori strain no 14, read-out: MIC
[17] = Helicobacter pylori, H. pylori strain no 15, read-out: MIC
[18] = Helicobacter pylori, H. pylori strain no 16, read-out: MIC
[19] = Helicobacter pylori, H. pylori strain no 17, read-out: MIC
[20] = Helicobacter pylori, H. pylori strain no 18, read-out: MIC
[21] = Helicobacter pylori, H. pylori strain no 19, read-out: MIC
[22] = Helicobacter pylori, H. pylori strain no 20, read-out: MIC
[23] = Helicobacter pylori, H. pylori strain no 22, read-out: MIC
[24] = Helicobacter pylori, H. pylori strain no 23, read-out: MIC
[25] = Helicobacter pylori, H. pylori strain no 24, read-out: MIC
[26] = Helicobacter pylori, H. pylori strain no 25, read-out: MIC
[27] = Helicobacter pylori, H. pylori strain no 26, read-out: MIC
[28] = Helicobacter pylori, H. pylori strain no 27, read-out: MIC
[29] = Helicobacter pylori, H. pylori strain no 28, read-out: MIC
[30] = Helicobacter pylori, H. pylori strain no 30, read-out: MIC
[31] = Helicobacter pylori, H. pylori strain no 31, read-out: MIC
[32] = Helicobacter pylori, H. pylori strain no 32, read-out: MIC
[33] = Helicobacter pylori, H. pylori strain no 33, read-out: MIC
[34] = Helicobacter pylori, H. pylori strain no 35, read-out: MIC
[35] = Helicobacter pylori, H. pylori strain no 36, read-out: MIC
[36] = Helicobacter pylori, H. pylori strain no 37, read-out: MIC
[37] = Helicobacter pylori, H. pylori strain no 39, read-out: MIC
[38] = Helicobacter pylori, H. pylori strain no 40, read-out: MIC
[39] = Helicobacter pylori, H. pylori strain no 41, read-out: MIC
[40] = Helicobacter pylori, H. pylori strain no 42, read-out: MIC
[41] = Helicobacter pylori, H. pylori strain no 43, read-out: MIC
[42] = Helicobacter pylori, H. pylori strain no 44, read-out: MIC
[43] = Helicobacter pylori, H. pylori strain no 45, read-out: MIC
[44] = Helicobacter pylori, H. pylori strain no 46, read-out: MIC
[45] = Helicobacter pylori, H. pylori strain no 47, read-out: MIC
[46] = Helicobacter pylori, H. pylori strain no 9, read-out: MIC
[47] = Helicobacter pylori, H. pylori strain no 29, read-out: MIC
[48] = Helicobacter pylori, H. pylori strain no 38, read-out: MIC

CC1(C)S[C@@H]2[C@H](NC(=O)[C@H](N)c3ccc(O)cc3)C(=O)N2[C@H]1C(=O)O [Amoxicillin]
MIC [1, 4]: 0.06 µg/mL (≈ 0.164 µM)
MIC [1, 5]: 0.06 µg/mL (≈ 0.164 µM)
MIC [1, 6]: 0.06 µg/mL (≈ 0.164 µM)
MIC [1, 7]: 0.06 µg/mL (≈ 0.164 µM)
MIC [1, 8]: 0.06 µg/mL (≈ 0.164 µM)
MIC [1, 9]: 0.06 µg/mL (≈ 0.164 µM)
MIC [1, 10]: 0.06 µg/mL (≈ 0.164 µM)
MIC [1, 11]: 0.06 µg/mL (≈ 0.164 µM)
MIC [1, 12]: 0.06 µg/mL (≈ 0.164 µM)
MIC [1, 13]: 0.06 µg/mL (≈ 0.164 µM)
MIC [1, 14]: 0.06 µg/mL (≈ 0.164 µM)
MIC [1, 15]: 0.06 µg/mL (≈ 0.164 µM)
MIC [1, 16]: 0.06 µg/mL (≈ 0.164 µM)
MIC [1, 17]: 0.06 µg/mL (≈ 0.164 µM)
MIC [1, 18]: 0.06 µg/mL (≈ 0.164 µM)
MIC [1, 19]: 0.06 µg/mL (≈ 0.164 µM)
MIC [1, 20]: 0.06 µg/mL (≈ 0.164 µM)
MIC [1, 21]: 0.06 µg/mL (≈ 0.164 µM)
MIC [1, 22]: 0.06 µg/mL (≈ 0.164 µM)
MIC [1, 23]: 0.06 µg/mL (≈ 0.164 µM)
MIC [1, 24]: 0.06 µg/mL (≈ 0.164 µM)
MIC [1, 25]: 0.06 µg/mL (≈ 0.164 µM)
MIC [1, 26]: 0.06 µg/mL (≈ 0.164 µM)
MIC [1, 27]: 0.06 µg/mL (≈ 0.164 µM)
MIC [1, 28]: 0.06 µg/mL (≈ 0.164 µM)
MIC [1, 29]: 0.06 µg/mL (≈ 0.164 µM)
MIC [1, 30]: 0.06 µg/mL (≈ 0.164 µM)
MIC [1, 31]: 0.06 µg/mL (≈ 0.164 µM)
MIC [1, 32]: 0.06 µg/mL (≈ 0.164 µM)
MIC [2, 33]: 0.06 µg/mL (≈ 0.164 µM)
MIC [2, 34]: 0.06 µg/mL (≈ 0.164 µM)
MIC [2, 35]: 0.06 µg/mL (≈ 0.164 µM)
MIC [2, 36]: 0.06 µg/mL (≈ 0.164 µM)
MIC [2, 37]: 0.06 µg/mL (≈ 0.164 µM)
MIC [2, 38]: 0.06 µg/mL (≈ 0.164 µM)
MIC [2, 39]: 0.06 µg/mL (≈ 0.164 µM)
MIC [2, 40]: 0.06 µg/mL (≈ 0.164 µM)
MIC [2, 41]: 0.06 µg/mL (≈ 0.164 µM)
MIC [2, 42]: 0.06 µg/mL (≈ 0.164 µM)
MIC [2, 43]: 0.06 µg/mL (≈ 0.164 µM)
MIC [2, 44]: 0.06 µg/mL (≈ 0.164 µM)
MIC [2, 45]: 0.06 µg/mL (≈ 0.164 µM)

CSCCCCCN=C=S [Bertoin]
activity as inducers relative to sulforaphane and sulforaphene [3]: less active

CC[C@H]1OC(=O)[C@H](C)[C@@H](O[C@H]2C[C@@](C)(OC)[C@@H](O)[C@H](C)O2)[C@H](C)[C@@H](O[C@@H]2O[C@H](C)C[C@H](N(C)C)[C@H]2O)[C@](C)(OC)C[C@@H](C)C(=O)[C@H](C)[C@@H](O)[C@]1(C)O [Clarithromycin]
MIC ([1]; H. pylori strain no 2): 0.125 µg/mL (≈ 0.167 µM)
MIC ([1]; H. pylori strain no 28): 0.125 µg/mL (≈ 0.167 µM)
MIC ([1]; Helicobacter pylori): 0.125 µg/mL (≈ 0.167 µM)
MIC [1, 4]: 0.06 µg/mL (≈ 0.0802 µM)
MIC [1, 7]: 0.06 µg/mL (≈ 0.0802 µM)
MIC [1, 8]: 0.06 µg/mL (≈ 0.0802 µM)
MIC [1, 9]: 0.06 µg/mL (≈ 0.0802 µM)
MIC [1, 10]: 0.06 µg/mL (≈ 0.0802 µM)
MIC [1, 11]: 0.06 µg/mL (≈ 0.0802 µM)
MIC [1, 46]: 0.06 µg/mL (≈ 0.0802 µM)
MIC [1, 12]: 0.06 µg/mL (≈ 0.0802 µM)
MIC [1, 13]: 0.06 µg/mL (≈ 0.0802 µM)
MIC [1, 14]: 0.06 µg/mL (≈ 0.0802 µM)
MIC [1, 15]: 0.06 µg/mL (≈ 0.0802 µM)
MIC [1, 16]: 0.06 µg/mL (≈ 0.0802 µM)
MIC [1, 17]: 0.06 µg/mL (≈ 0.0802 µM)
MIC [1, 18]: 0.06 µg/mL (≈ 0.0802 µM)
MIC [1, 19]: 0.06 µg/mL (≈ 0.0802 µM)
MIC [1, 20]: 0.06 µg/mL (≈ 0.0802 µM)
MIC [1, 21]: 0.06 µg/mL (≈ 0.0802 µM)
MIC [1, 22]: 0.06 µg/mL (≈ 0.0802 µM)
MIC ([1]; Helicobacter pylori, H. pylori strain no 21, read-out: MIC): 0.06 µg/mL (≈ 0.0802 µM)
MIC [1, 23]: 2 µg/mL (≈ 2.67 µM)
MIC [1, 24]: 0.06 µg/mL (≈ 0.0802 µM)
MIC [1, 25]: 0.06 µg/mL (≈ 0.0802 µM)
MIC [1, 26]: 0.06 µg/mL (≈ 0.0802 µM)
MIC [1, 27]: 0.06 µg/mL (≈ 0.0802 µM)
MIC [1, 28]: 0.06 µg/mL (≈ 0.0802 µM)
MIC [1, 47]: 0.06 µg/mL (≈ 0.0802 µM)
MIC [1, 30]: 0.06 µg/mL (≈ 0.0802 µM)
MIC [1, 31]: 0.06 µg/mL (≈ 0.0802 µM)
MIC [1, 32]: 0.06 µg/mL (≈ 0.0802 µM)
MIC ([2]; H. pylori strain no 34): 0.125 µg/mL (≈ 0.167 µM)
MIC ([2]; Helicobacter pylori): 0.125 µg/mL (≈ 0.167 µM)
MIC [2, 33]: 0.06 µg/mL (≈ 0.0802 µM)
MIC [2, 34]: 0.06 µg/mL (≈ 0.0802 µM)
MIC [2, 35]: 0.06 µg/mL (≈ 0.0802 µM)
MIC [2, 36]: 0.06 µg/mL (≈ 0.0802 µM)
MIC [2, 48]: 0.5 µg/mL (≈ 0.668 µM)
MIC [2, 38]: 0.06 µg/mL (≈ 0.0802 µM)
MIC [2, 39]: 4 µg/mL (≈ 5.35 µM)
MIC [2, 40]: 16 µg/mL (≈ 21.4 µM)
MIC [2, 41]: 16 µg/mL (≈ 21.4 µM)
MIC [2, 42]: 16 µg/mL (≈ 21.4 µM)
MIC [2, 43]: 8 µg/mL (≈ 10.7 µM)
MIC [2, 44]: 16 µg/mL (≈ 21.4 µM)
MIC [2, 45]: 16 µg/mL (≈ 21.4 µM)

Cc1ncc([N+](=O)[O-])n1CCO [Metronidazole]
MIC [1, 4]: 1 µg/mL (≈ 5.84 µM)
MIC [1, 5]: 1 µg/mL (≈ 5.84 µM)
MIC [1, 6]: 1 µg/mL (≈ 5.84 µM)
MIC [1, 7]: 1 µg/mL (≈ 5.84 µM)
MIC [1, 8]: 4 µg/mL (≈ 23.4 µM)
MIC [1, 9]: 0.06 µg/mL (≈ 0.351 µM)
MIC [1, 10]: 0.06 µg/mL (≈ 0.351 µM)
MIC [1, 11]: 0.5 µg/mL (≈ 2.92 µM)
MIC [1, 46]: 1 µg/mL (≈ 5.84 µM)
MIC [1, 12]: 0.5 µg/mL (≈ 2.92 µM)
MIC [1, 13]: 0.25 µg/mL (≈ 1.46 µM)
MIC [1, 14]: 1 µg/mL (≈ 5.84 µM)
MIC [1, 15]: 1 µg/mL (≈ 5.84 µM)
MIC [1, 16]: 0.06 µg/mL (≈ 0.351 µM)
MIC [1, 17]: 0.06 µg/mL (≈ 0.351 µM)
MIC [1, 18]: 0.5 µg/mL (≈ 2.92 µM)
MIC [1, 19]: 1 µg/mL (≈ 5.84 µM)
MIC [1, 20]: 1 µg/mL (≈ 5.84 µM)
MIC [1, 24]: 0.06 µg/mL (≈ 0.351 µM)
MIC [1, 25]: 0.5 µg/mL (≈ 2.92 µM)
MIC [1, 26]: 1 µg/mL (≈ 5.84 µM)
MIC [1, 27]: 1 µg/mL (≈ 5.84 µM)
MIC [1, 28]: 0.06 µg/mL (≈ 0.351 µM)
MIC [1, 29]: 0.5 µg/mL (≈ 2.92 µM)
MIC [1, 47]: 1 µg/mL (≈ 5.84 µM)
MIC [1, 30]: 0.5 µg/mL (≈ 2.92 µM)
MIC [1, 31]: 0.25 µg/mL (≈ 1.46 µM)
MIC [1, 32]: 1 µg/mL (≈ 5.84 µM)
MIC [2, 33]: 32 µg/mL (≈ 187 µM)
MIC ([2]; Helicobacter pylori, H. pylori strain no 34, read-out: MIC): 256 µg/mL (≈ 1500 µM)
MIC [2, 34]: 64 µg/mL (≈ 374 µM)
MIC [2, 35]: 64 µg/mL (≈ 374 µM)
MIC [2, 36]: 64 µg/mL (≈ 374 µM)
MIC [2, 48]: 64 µg/mL (≈ 374 µM)
MIC [2, 37]: 256 µg/mL (≈ 1500 µM)
MIC [2, 38]: 64 µg/mL (≈ 374 µM)
MIC [2, 39]: 16 µg/mL (≈ 93.5 µM)
MIC [2, 40]: 1 µg/mL (≈ 5.84 µM)
MIC [2, 41]: 1 µg/mL (≈ 5.84 µM)
MIC [2, 42]: 0.5 µg/mL (≈ 2.92 µM)
MIC [2, 43]: 2 µg/mL (≈ 11.7 µM)
MIC [2, 44]: 32 µg/mL (≈ 187 µM)
MIC [2, 45]: 64 µg/mL (≈ 374 µM)

C[S+]([O-])CCCCCN=C=S (stereo not drawn) [alyssin]
activity as inducers relative to sulforaphane and sulforaphene [3]: less active

CS(=O)(=O)CCCN=C=S [cheirolin]
activity as inducers relative to sulforaphane and sulforaphene [3]: less active

CS(=O)(=O)CCCCN=C=S [erysolin]
activity as inducers relative to sulforaphane and sulforaphene [3]: less active

C[S+]([O-])CCCN=C=S (stereo not drawn) [iberin]
activity as inducers relative to sulforaphane and sulforaphene [3]: less active

CSCCCN=C=S [iberverin]
activity as inducers relative to sulforaphane and sulforaphene [3]: less active
